The source of these data is US9745266B2 (THE REGENTS OF THE UNIVERSITY OF COLORADO, A BODY CORPORATE, priority 2013, dated 2017).

Values after ≈ are worked out from the molar mass of the structure shown.

Series [1] can be described thus: Mammalian cytotoxicity, CellTiter-Glo viability assay. It is filed as cell-based, human. The note with it: human, HeLa cells. As to the method: To evaluate the cytotoxicity of Of1 in mammalian cells, a cell viability assay was carried out using CellTiter-Glo luminescent cell viability assay kit (Promega). Human cervixcal adenocarcinoma HeLa cells were seeded on white, cell-culture treated 96-well plates (Corning: 3917) with Dulbecco's modified Eagle's medium (DMEM) supplemented with 10% fetal calf serum (FCS), 1% penicillin/streptomycin, at the densities of 20,000 cells/well. The medium volume for each well was 100 μL. Cells were incubated at 37° C. in 5% CO2/95% air for 16 hours. The medium was removed from each well and replaced with 99 μL of warmed fresh medium. To each well, 1 μL of Of1 analog was added in DMSO to final concentrations of 0.5-32 μg/mL. Each series was performed in triplicate. After incubation at 37° C. for another 24 hours, the plates were equilibrated to room temperature for 30 minutes. 100 μL of CellTiter-Glo reagent (Promega) was added to each well and mixed for 2 minutes on an orbital shaker. The plate was incubated at room temperature for another 10 minutes to stabilize luminescent signal. The luminescence of each sample was recorded in an Envision Multilabel Plate Reader (Perkin Elmer).
Background: ATP-based viability assays read luminescence as a measure of living cells.

Series [2] deals with MRSA ATCC BAA-44. Description: MIC in the presence of 20 μM Of1 / alkaloid. The class given is cell-based, S. aureus. Conditions: MRSA ATCC BAA-44. On the procedure: Indoline alkaloid compounds were then screened for the ability to potentiate the activity of methicillin against MRSA. A multi-drug resistant MRSA strain (ATCC: BAA-44) was selected for the initial screening. […] To each well, 20 μM of each individual indoline alkaloid was added and the plates were incubated at 37° C. for 16 hrs.
The MRSA strain ATCC BAA-44 and the methicillin-sensitive S. aureus (MSSA) strain ATCC 25923 were used to determine the MIC values of various antimicrobial compounds in the presence of 20 μM Of1. The experiment was conducted similarly to the CLSI MIC determination described previously; however, MHB was supplemented with 40 μM Of1 prior to set up and inoculation. The final concentration of Of1 after inoculation with BAA-44 was 20 μM.

Series [3] concerns MRSA ATCC BAA-44. Description: MIC, CLSI broth microdilution. The note with it: Staphylococcus aureus; MRSA ATCC BAA-44, compound alone; read-out: MIC. The class given is cell-based, S. aureus.

The GI50 is the concentration at which growth is held to half of that of the control. A lower GI50 goes with greater sensitivity of the cells. In series [1], `C=C1CCC[C@@H]2Nc3c(F)cc(Br)cc3[C@]12CCNS(=O)(=O)c1ccc(OC(F)F)c(Cl)c1` (relative stereo) came in with a GI50 at 24 h of 15.4 µg/mL (≈ 27.2 µM).

Compound `C=C1CCCC2Nc3ccc(Cl)cc3C12CCNS(=O)(=O)c1ccc(Cl)cc1` (stereo not drawn) [Cpd 6a, 4-Chloro-N-[2-(6-chloro-4-methylidene-2,3,4,4a,9,9a-hexahydro-1H-carbazol-4a-yl)ethyl]benzene-1-sulfonamide] yielded a GI50 at 24 h in series [1] of 35 µg/mL (≈ 80 µM).

In the case of `C=C1CCCC2Nc3c(Cl)cc(Cl)cc3C12CCNS(=O)(=O)c1ccc(Cl)cc1` (stereo not drawn) [Cpd 6k, 4-Chloro-N-[2-(6,8-dichloro-4-methylidene-2,3,4,4a,9,9a-hexahydro-1H-carbazol-4a-yl)ethyl]benzene-1-sulfonamide], in series [1], it took 13.6 µg/mL (≈ 28.8 µM) to inhibit growth by half (GI50 at 24 h).

In series [1], `C=C1CCCC2Nc3c(F)cc(Br)cc3C12CCNS(=O)(=O)c1ccc(Cl)cc1` (stereo not drawn) [Cpd 6l, N-[2-(6-bromo-8-fluoro-4-methylidene-2,3,4,4a,9,9a-hexahydro-1H-carbazol-4a-yl)ethyl]-4-chlorobenzene-1-sulfonamide] had a GI50 at 24 h of 18.1 µg/mL (≈ 36.2 µM).

As to `C=C1CCCC2Nc3ccc(Br)cc3C12CCNS(=O)(=O)c1ccc(Br)cc1` (stereo not drawn) [Cpd 12g, 4-Bromo-N-[2-(6-bromo-4-methylidene-2,3,4,4a,9,9a-hexahydro-1H-carbazol-4a-yl)ethyl]benzene-1-sulfonamide], halving of growth in series [1] (GI50 at 24 h) required 40 µg/mL (≈ 76 µM). Compared with the last compound, the GI50 at 24 h is about 2.2-fold higher.

Take `C=C1CCCC2Nc3ccc(Br)cc3C12CCNS(=O)(=O)c1ccc(I)cc1` (stereo not drawn) [Cpd 12h, N-[2-(6-bromo-4-methylidene-2,3,4,4a,9,9a-hexahydro-1H-carbazol-4a-yl)ethyl]-4-iodobenzene-1-sulfonamide]: in series [1], the 50% growth inhibitory concentration (GI50) at 24 h was determined as 33 µg/mL (≈ 57.6 µM).

For `C=C1CCCC2Nc3ccc(Br)cc3C12CCNS(=O)(=O)c1ccc(Cl)c(Cl)c1` (stereo not drawn) [Cpd 12i, N-[2-(6-bromo-4-methylidene-2,3,4,4a,9,9a-hexahydro-1H-carbazol-4a-yl)ethyl]-3,4-dichlorobenzene-1-sulfonamide], the 50% growth inhibitory concentration (GI50) at 24 h in series [1] came out at 12.8 µg/mL (≈ 24.8 µM).

Compound `C=C1CCCC2Nc3c(F)cc(Br)cc3C12CCNS(=O)(=O)c1ccc(OC)cc1` (stereo not drawn) [Cpd 13a, N-[2-(6-bromo-8-fluoro-4-methylidene-2,3,4,4a,9,9a-hexahydro-1H-carbazol-4a-yl)ethyl]-4-methoxybenzene-1-sulfonamide] had a GI50 at 24 h in series [1] of 49 µg/mL (≈ 98.9 µM). Against the preceding compound, the GI50 at 24 h is about 3.8-fold higher.

Consider `C=C1CCCC2Nc3c(F)cc(Br)cc3C12CCNS(=O)(=O)c1ccc(C)cc1` (stereo not drawn) [Cpd 13b, N-[2-(6-bromo-8-fluoro-4-methylidene-2,3,4,4a,9,9a-hexahydro-1H-carbazol-4a-yl)ethyl]-4-methylbenzene-1-sulfonamide], for which halving of growth in series [1] (GI50 at 24 h) required 22 µg/mL (≈ 45.9 µM).

`C=C1CCCC2Nc3c(F)cc(Br)cc3C12CCNS(=O)(=O)c1ccc(F)cc1` (stereo not drawn) [Cpd 13c, N-[2-(6-bromo-8-fluoro-4-methylidene-2,3,4,4a,9,9a-hexahydro-1H-carbazol-4a-yl)ethyl]-4-fluorobenzene-1-sulfonamide]: in series [1], the GI50 at 24 h is 18.3 µg/mL (≈ 37.9 µM).

As to `C=C1CCCC2Nc3c(F)cc(Br)cc3C12CCNS(=O)(=O)c1ccc(Br)cc1` (stereo not drawn) [Cpd 13d, 4-Bromo-N-[2-(6-bromo-8-fluoro-4-methylidene-2,3,4,4a,9,9a-hexahydro-1H-carbazol-4a-yl)ethyl]benzene-1-sulfonamide], in series [1], growth was halved (GI50 at 24 h) at 22 µg/mL (≈ 40.4 µM).

`C=C1CCCC2Nc3c(F)cc(Br)cc3C12CCNS(=O)(=O)c1ccc(I)cc1` (stereo not drawn) [Cpd 13e, N-[2-(6-bromo-8-fluoro-4-methylidene-2,3,4,4a,9,9a-hexahydro-1H-carbazol-4a-yl)ethyl]-4-iodobenzene-1-sulfonamide] showed a GI50 at 24 h in series [1] of 19.6 µg/mL (≈ 33.1 µM).

For `C=C1CCCC2Nc3c(F)cc(Br)cc3C12CCNS(=O)(=O)c1ccc(Cl)c(Cl)c1` (stereo not drawn) [Cpd 13f, N-[2-(6-bromo-8-fluoro-4-methylidene-2,3,4,4a,9,9a-hexahydro-1H-carbazol-4a-yl)ethyl]-3,4-dichlorobenzene-1-sulfonamide], it took 31 µg/mL (≈ 58 µM) to inhibit growth in series [1] by half (GI50 at 24 h).

For the compound `C=C1CCCC2Nc3c(F)cc(Br)cc3C12CCNS(=O)(=O)c1ccc(NC(C)=O)cc1` (stereo not drawn) [Cpd 13g, N-(4-{[2-(6-bromo-8-fluoro-4-methylidene-2,3,4,4a,9,9a-hexahydro-1H-carbazol-4a-yl)ethyl]sulfamoyl}phenyl)acetamide], the GI50 at 24 h in series [1] worked out at 32 µg/mL (≈ 61.3 µM).

`C=C1CCCC2Nc3c(F)cc(Br)cc3C12CCNS(=O)(=O)c1ccc(C#N)cc1` (stereo not drawn) [Cpd 13h, N-[2-(6-bromo-8-fluoro-4-methylidene-2,3,4,4a,9,9a-hexahydro-1H-carbazol-4a-yl)ethyl]-4-cyanobenzene-1-sulfonamide] yielded a GI50 at 24 h in series [1] of 17 µg/mL (≈ 34.7 µM). This GI50 at 24 h is about 1.9-fold lower than that of the compound before.

Take `C=C1CCCC2Nc3c(F)cc(Br)cc3C12CCNS(=O)(=O)c1ccc(C(F)(F)F)cc1` (stereo not drawn) [Cpd 13i, N-[2-(6-bromo-8-fluoro-4-methylidene-2,3,4,4a,9,9a-hexahydro-1H-carbazol-4a-yl)ethyl]-4-(trifluoromethyl)benzene-1-sulfonamide]: growth in series [1] was halved (GI50 at 24 h) at 8.7 µg/mL (≈ 16.3 µM).

`C=C1CCCC2Nc3c(F)cc(Br)cc3C12CCNS(=O)(=O)c1ccc(Br)c(Br)c1` (stereo not drawn) [Cpd 13j, 3,4-Dibromo-N-[2-(6-bromo-8-fluoro-4-methylidene-2,3,4,4a,9,9a-hexahydro-1H-carbazol-4a-yl)ethyl]benzene-1-sulfonamide]: the concentration for 50% growth inhibition (GI50) at 24 h in series [1] came to 20 µg/mL (≈ 32.1 µM).

`C=C1CCCC2Nc3c(F)cc(Br)cc3C12CCNS(=O)(=O)c1ccc(Br)c(F)c1` (stereo not drawn) [Cpd 13k, 4-Bromo-N-[2-(6-bromo-8-fluoro-4-methylidene-2,3,4,4a,9,9a-hexahydro-1H-carbazol-4a-yl)ethyl]-3-fluorobenzene-1-sulfonamide] registered a concentration for 50% growth inhibition (GI50) at 24 h in series [1] of 17.5 µg/mL (≈ 31.1 µM).

`C=C1CCCC2Nc3c(F)cc(Br)cc3C12CCNS(=O)(=O)c1ccc(Br)cc1C(F)(F)F` (stereo not drawn) [Cpd 13l, 4-Bromo-N-[2-(6-bromo-8-fluoro-4-methylidene-2,3,4,4a,9,9a-hexahydro-1H-carbazol-4a-yl)ethyl]-2-(trifluoromethyl)benzene-1-sulfonamide] gave a GI50 at 24 h in series [1] of 21 µg/mL (≈ 34.3 µM).

`C=C1CCCC2Nc3c(F)cc(Br)cc3C12CCNS(=O)(=O)c1ccc(Br)c(C(F)(F)F)c1` (stereo not drawn) [Cpd 13m, 4-Bromo-N-[2-(6-bromo-8-fluoro-4-methylidene-2,3,4,4a,9,9a-hexahydro-1H-carbazol-4a-yl)ethyl]-3-(trifluoromethyl)benzene-1-sulfonamide] gave a GI50 at 24 h in series [1] of 8.3 µg/mL (≈ 13.6 µM). This GI50 at 24 h lies about 2.5-fold lower than the previous one.

`C=C1CCCC2Nc3c(F)cc(Br)cc3C12CCNS(=O)(=O)c1ccc(Br)cc1C` (stereo not drawn) [Cpd 13n, 4-bromo-N-[2-(6-bromo-8-fluoro-4-methylidene-2,3,4,4a,9,9a-hexahydro-1H-carbazol-4a-yl)ethyl]-2-methylbenzene-1-sulfonamide] came in with a GI50 at 24 h in series [1] of 13.5 µg/mL (≈ 24.2 µM).

As for `C=C1CCCC2Nc3c(F)cc(Br)cc3C12CCNS(=O)(=O)c1ccc(Br)c(C)c1` (stereo not drawn) [Cpd 13o, 4-bromo-N-[2-(6-bromo-8-fluoro-4-methylidene-2,3,4,4a,9,9a-hexahydro-1H-carbazol-4a-yl)ethyl]-3-methylbenzene-1-sulfonamide], in series [1], the GI50 at 24 h amounted to 12.5 µg/mL (≈ 22.4 µM).

Turning to `C=C1CCCC2Nc3c(F)cc(Br)cc3C12CCNS(=O)(=O)c1cc(Br)c(Br)s1` (stereo not drawn) [Cpd 13p, 4,5-dibromo-N-[2-(6-bromo-8-fluoro-4-methylidene-2,3,4,4a,9,9a-hexahydro-1H-carbazol-4a-yl)ethyl]thiophene-2-sulfonamide], the 50% growth inhibitory concentration (GI50) at 24 h in series [1] is 14.6 µg/mL (≈ 23.2 µM).

Consider `C=C1CCCC2Nc3c(F)cc(Br)cc3C12CCNS(=O)(=O)c1cncc(Br)c1` (stereo not drawn) [Cpd 13q, 5-bromo-N-[2-(6-bromo-8-fluoro-4-methylidene-2,3,4,4a,9,9a-hexahydro-1H-carbazol-4a-yl)ethyl]pyridine-3-sulfonamide], for which, in series [1], growth was halved (GI50 at 24 h) at 11.2 µg/mL (≈ 20.5 µM).

The compound `C=C1CCCC2Nc3c(F)cc(Br)cc3C12CCNS(=O)(=O)c1ccc(Cl)nc1` (stereo not drawn) [Cpd 13r, N-[2-(6-bromo-8-fluoro-4-methylidene-2,3,4,4a,9,9a-hexahydro-1H-carbazol-4a-yl)ethyl]-6-chloropyridine-3-sulfonamide] showed a GI50 at 24 h in series [1] of 16.7 µg/mL (≈ 33.3 µM). The GI50 at 24 h values of the last two compounds are within 1.5-fold of each other.

Take `C=C1CCCC2Nc3c(F)cc(Br)cc3C12CCNS(=O)(=O)c1cn(C)cn1` (stereo not drawn) [Cpd 13s, N-[2-(6-bromo-8-fluoro-4-methylidene-2,3,4,4a,9,9a-hexahydro-1H-carbazol-4a-yl)ethyl]-1-methyl-1H-imidazole-4-sulfonamide]: the GI50 at 24 h in series [1] stood at 23 µg/mL (≈ 49 µM).

Consider `C=C1CCCC2Nc3c(F)cc(Br)cc3C12CCNS(=O)(=O)c1cc2ccccc2o1` (stereo not drawn) [Cpd 13t, N-[2-(6-bromo-8-fluoro-4-methylidene-2,3,4,4a,9,9a-hexahydro-1H-carbazol-4a-yl)ethyl]-1-benzofuran-2-sulfonamide], for which the GI50 at 24 h in series [1] is 12.3 µg/mL (≈ 24.3 µM).

For orientation: MIC means the lowest concentration found to suppress growth. With `Cc1nnc(SCC2=C(C(=O)O)N3C(=O)[C@@H](NC(=O)Cn4cnnn4)[C@H]3SC2)s1` [cefazolin], the fold of potentiation in series [2] (MIC / MIC (+20 μM Of1)) is 32. In addition, the “MIC (+Of1)” value in series [2] (in the presence of 20 μM Of1) worked out at 4 µg/mL. Besides, in series [3], the MIC is 128 µg/mL (≈ 282 µM).
